Reference: patent US20260226493A1, “HERBICIDE RESISTANT PLANTS” (SYNGENTA CROP PROTECTION AG, priority 2023, published 2026)
Several values for one entry are separate records, joined by “and”; a condition that tells them apart may be missing. Identical values can stand only once.

Columns and labels:
[1] = tested on: D4597 (Arabidopsis thaliana BIO3-BIO1 G700S) containing tobacco plants; experiment: Visual herbicide damage score on transgenic tobacco D4597 (pCMP AtBioDA G700S); assay type: in vivo; conditions: 600 gai/ha; 7 DAT; each table row is one D4597 transgenic plant
Text: (§1) Populations of transgenic tobacco comprising 20-30 transgenic events per plant transformation constructs were generated as described in Example 1. These lines were clonally propagated and 1 clone per event was sprayed with 600 g ai/ha compound L or A+0.2% Genapol X080 with a spray volume of 200 L/Ha (“g ai/ha” refers to grams of active compound per hectare).
(§2) Herbicidal damage was visually assessed across the population and a herbicide damage score given at 7, 14 and 21 days. A score of 0 indicates no visible damage or stunting whereas a score of 100 indicates a complete death of the plant. 20 transgenic events (i.e. individual transgenic plants) from each GM tobacco line were transplanted to soil 1 week prior to spraying with BIO3-BIO1inhibiting compounds. WT tobacco was included as a control.
(§3) To determine if overexpression of variants detailed in Example 7 confer resistance to BIO3-BIO1 inhibiting compounds when expressed in plants, GM tobacco lines were produced using the methods in Example 1 and tested with BIO3-BIO1 inhibiting compounds.
(§4) Transgenic tobacco plants expressing the Arabidopsis thaliana BIO3-BIO1 variants C388D (SEQ ID NO:26), P421L(SEQ ID NO:41), F348C (SEQ ID NO:28), G700S (SEQ ID NO:39), W392S (SEQ ID NO:70) and the Zea mays BIO3-BIO1 variant C372D (SEQ ID NO:324). Populations of transgenic tobacco were sprayed and assessed as in Example 2

[2] = tested on: D4604 (Arabidopsis thaliana BIO3-BIO1 W392S) containing tobacco plants; experiment: Visual herbicide damage score on transgenic tobacco D4604 (pCMP AtBioDA W392S); assay type: in vivo; conditions: 600 gai/ha, each table row is one D4604 transgenic plant
Text: as §1, §2, §3, §4

Wildtype Samsun tobacco = experiment: Visual herbicide damage score on wild-type tobacco plants after spraying; assay type: in vivo; conditions: for percentage of damage: 600 gai/ha, one WT plant
Text: as §1
as §2, with “A” for “Herbicidal damage was visually assessed across the population and a herbicide damage score given at 7, 14 and 21 days. A”, “control. […]” for “control.”

[3] = target: T1, Arabidopsis thaliana BioDA variant enzymes (Arabidopsis thaliana, UniProt B0F481, W392G); experiment: biochemical
T1 construct: with the predicted N-terminal mitochondrial transit peptide removed; 6xHis-tag (N); thrombin cleavage site (N); made in house; host or cells: E. coli BL21 (DE3) bioA
Summary of the method: (§5)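 His-tagged BIO3-BIO1 mutants expressed in E. coli and purified by IMAC and SEC. 50 nM enzyme preincubated with herbicide 10 min at 20 °C, then reacted 75 min with 20 μM KAPA and 100 μM spermidine in EPPS pH 8.6. DAPA derivatised with o-phthalaldehyde, fluorescence read at ex 410/em 470 nm; IC50 by non-linear regression.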

[4] = target: T2, Arabidopsis thaliana BioDA variant enzymes (Arabidopsis thaliana, UniProt B0F481, W391L); experiment: biochemical
T2 construct: with the predicted N-terminal mitochondrial transit peptide removed; 6xHis-tag (N); thrombin cleavage site (N); made in house; host or cells: E. coli BL21 (DE3) bioA
Summary of the method: as §5

[5] = target: T3, Arabidopsis thaliana BioDA variant enzymes (Arabidopsis thaliana, UniProt B0F481, P421L); experiment: biochemical
T3 construct: with the predicted N-terminal mitochondrial transit peptide removed; 6xHis-tag (N); thrombin cleavage site (N); made in house; host or cells: E. coli BL21 (DE3) bioA
Summary of the method: as §5

[6] = target: T4, Arabidopsis thaliana BioDA variant enzymes (Arabidopsis thaliana, UniProt B0F481, C388T); experiment: biochemical
T4 construct: with the predicted N-terminal mitochondrial transit peptide removed; 6xHis-tag (N); thrombin cleavage site (N); made in house; host or cells: E. coli BL21 (DE3) bioA
Summary of the method: as §5

[7] = target: T5, Arabidopsis thaliana BioDA variant enzymes (Arabidopsis thaliana, UniProt B0F481, F348C); experiment: biochemical
T5 construct: with the predicted N-terminal mitochondrial transit peptide removed; 6xHis-tag (N); thrombin cleavage site (N); made in house; host or cells: E. coli BL21 (DE3) bioA
Summary of the method: as §5

[8] = tested on: D4596 (Arabidopsis thaliana BIO3-BIO1 F348C) containing tobacco plants; experiment: Visual herbicide damage score on transgenic tobacco D4596 (pCMP AtBioDA F348C); assay type: in vivo; conditions: 600 gai/ha; 7 DAT; each table row is one D4596 transgenic plant
Text: as §1, §2, §3, §4

[9] = tested on: D4585 (Arabidopsis thaliana BIO3-BIO1 P421L) containing tobacco plants; experiment: Visual herbicide damage score on transgenic tobacco D4585 (pCMP AtBioDA P421L); assay type: in vivo; conditions: 600 gai/ha; 21 DAT; one D4585 transgenic plant
Text: as §1, §2, §3, §4

T4 sequence (B0F481 24-833 C388T): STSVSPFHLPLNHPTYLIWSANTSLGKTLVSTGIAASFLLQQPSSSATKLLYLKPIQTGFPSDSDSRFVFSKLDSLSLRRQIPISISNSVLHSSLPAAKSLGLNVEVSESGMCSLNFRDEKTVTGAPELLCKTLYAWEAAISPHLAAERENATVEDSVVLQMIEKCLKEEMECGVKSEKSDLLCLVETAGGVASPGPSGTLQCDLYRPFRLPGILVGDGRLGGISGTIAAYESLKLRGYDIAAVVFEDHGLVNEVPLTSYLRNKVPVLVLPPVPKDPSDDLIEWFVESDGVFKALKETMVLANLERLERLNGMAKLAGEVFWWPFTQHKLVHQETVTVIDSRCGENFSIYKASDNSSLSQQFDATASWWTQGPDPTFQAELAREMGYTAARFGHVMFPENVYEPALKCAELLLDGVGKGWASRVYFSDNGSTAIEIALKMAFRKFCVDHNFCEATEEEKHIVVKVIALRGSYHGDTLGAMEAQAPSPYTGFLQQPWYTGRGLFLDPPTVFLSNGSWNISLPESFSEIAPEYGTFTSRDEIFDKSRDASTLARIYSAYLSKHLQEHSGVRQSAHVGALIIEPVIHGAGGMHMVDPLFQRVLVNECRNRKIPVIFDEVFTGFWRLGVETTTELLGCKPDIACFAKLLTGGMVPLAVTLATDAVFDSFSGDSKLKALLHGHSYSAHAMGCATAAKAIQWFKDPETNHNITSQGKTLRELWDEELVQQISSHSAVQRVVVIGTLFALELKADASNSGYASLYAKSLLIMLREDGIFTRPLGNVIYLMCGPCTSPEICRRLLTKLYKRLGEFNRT
T2 sequence (B0F481 24-833 W391L): as the sequence (B0F481 24-833 C388T) above, with T365C, W368L counted along it
T5 sequence (B0F481 24-833 F348C): as the sequence (B0F481 24-833 C388T) above, with F325C, T365C counted along it
T1 sequence (B0F481 24-833 W392G): as the sequence (B0F481 24-833 C388T) above, with T365C, W369G counted along it
T3 sequence (B0F481 24-833 P421L): as the sequence (B0F481 24-833 C388T) above, with T365C, P398L counted along it

| Compound | percentage of damage [1] [%] | percentage of damage ([2]; 14 DAT) [%] | percentage of damage ([2]; 21 DAT) [%] | percentage of damage (Wildtype Samsun tobacco; 7 DAT) | percentage of damage (Wildtype Samsun tobacco; 14 DAT) | percentage of damage (Wildtype Samsun tobacco; 21 DAT) | growth of representative wild type tobacco plant after treatment (photograph, FIG. 6) (Wildtype Samsun tobacco; compound L 600 gai/ha, 28 days post treatment, compared to Event 8307 (pBin TMV EcBioA) and Event 8402 (pBin TMV MTP EcBioA)) | IC50 [3] [µM] | IC50 [4] [µM] | IC50 [5] [µM] | IC50 [6] [µM] | IC50 [7] [µM] | percentage of damage [8] | percentage of damage [9] |
| --- | --- | --- | --- | --- | --- | --- | --- | --- | --- | --- | --- | --- | --- | --- |
| CCn1c(Cn2ccc(C(F)(F)F)n2)cc(=O)c(C(=O)O)c1-c1ccc(Cl)c(Cl)c1 [Compound L, 2-(3,4-dichlorophenyl)-1-ethyl-4-oxo-6-[[3-(trifluoromethyl)pyrazol-1-yl]methyl]pyridine-3-carboxylic acid] | 10 | 70 | 80 | 55% and 40% and 45% and 50% | 80% (2×) and 85% and 75% | 90% and 75% and 85% | significantly stunted growth | 17.7 | 16.3 | 0.687 | 0.092 | 77.6 |  |  |
| CCOC(=O)c1nn(-c2ccc3c(c2)OC(F)(F)C(F)(F)O3)c2cccc(C(C)=O)c2c1=O [Compound A, ethyl 5-acetyl-4-oxo-1-(2,2,3,3-tetrafluoro-1,4-benzodioxin-6-yl)cinnoline-3-carboxylate] |  |  |  |  |  |  |  |  |  |  |  |  | 0% and 3% | 5% and 0% and 2% |
